One molecule from patent US11072612B2, “NLRP3 modulators” (INNATE TUMOR IMMUNITY, INC., priority 2016, dated 2021) can be followed below.

The structures appear in SMILES notation. A value given as a limit tells only on which side of the number the result lay.

The EC50 is the concentration that produces a half-maximal response.

What all share (format): cell-based
One test deals with T1, hNLRP3 (Homo sapiens, UniProt Q96P20).
T1 construct: THP-1 cells were purchased from the American Type Culture Collection; host or cells: THP-1 cells, PMA-differentiated
T1 sequence (Q96P20 whole entry): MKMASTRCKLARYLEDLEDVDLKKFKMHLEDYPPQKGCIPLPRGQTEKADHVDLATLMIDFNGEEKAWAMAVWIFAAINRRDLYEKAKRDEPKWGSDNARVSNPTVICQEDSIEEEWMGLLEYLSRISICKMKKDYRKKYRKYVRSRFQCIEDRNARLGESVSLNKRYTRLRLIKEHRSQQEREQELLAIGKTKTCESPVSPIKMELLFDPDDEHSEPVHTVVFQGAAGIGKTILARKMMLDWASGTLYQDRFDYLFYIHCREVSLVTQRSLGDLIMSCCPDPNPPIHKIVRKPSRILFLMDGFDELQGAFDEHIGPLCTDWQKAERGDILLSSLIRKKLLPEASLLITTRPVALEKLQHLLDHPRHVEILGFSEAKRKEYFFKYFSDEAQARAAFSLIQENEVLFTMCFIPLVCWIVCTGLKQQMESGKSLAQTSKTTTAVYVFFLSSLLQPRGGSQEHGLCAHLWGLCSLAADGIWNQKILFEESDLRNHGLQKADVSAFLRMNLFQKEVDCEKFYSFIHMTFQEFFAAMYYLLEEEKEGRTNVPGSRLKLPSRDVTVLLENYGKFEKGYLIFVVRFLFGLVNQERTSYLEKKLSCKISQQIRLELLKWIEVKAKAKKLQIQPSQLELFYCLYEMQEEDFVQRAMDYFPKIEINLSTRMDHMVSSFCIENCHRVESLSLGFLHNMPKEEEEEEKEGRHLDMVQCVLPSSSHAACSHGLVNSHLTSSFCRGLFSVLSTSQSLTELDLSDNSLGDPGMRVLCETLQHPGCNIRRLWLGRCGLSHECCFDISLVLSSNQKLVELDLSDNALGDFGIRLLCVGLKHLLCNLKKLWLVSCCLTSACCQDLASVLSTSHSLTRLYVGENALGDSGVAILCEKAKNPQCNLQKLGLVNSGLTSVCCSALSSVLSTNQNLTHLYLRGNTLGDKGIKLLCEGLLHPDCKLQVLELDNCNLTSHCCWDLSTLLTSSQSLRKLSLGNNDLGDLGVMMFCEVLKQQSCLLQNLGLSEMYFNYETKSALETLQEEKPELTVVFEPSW
The test is described as follows: hNLRP3 agonist assay: IL-1β production in PMA-differentiated THP-1 cells (ELISA). The note with it: Table 2, 4 hours, IL-1β by ELISA. Background: In an ELISA, binding on a coated surface is turned into a signal by an enzyme label.

Another test concerns the target T2, TLR8 (Homo sapiens, UniProt Q9NR97).
T2 sequence (Q9NR97 27-1041): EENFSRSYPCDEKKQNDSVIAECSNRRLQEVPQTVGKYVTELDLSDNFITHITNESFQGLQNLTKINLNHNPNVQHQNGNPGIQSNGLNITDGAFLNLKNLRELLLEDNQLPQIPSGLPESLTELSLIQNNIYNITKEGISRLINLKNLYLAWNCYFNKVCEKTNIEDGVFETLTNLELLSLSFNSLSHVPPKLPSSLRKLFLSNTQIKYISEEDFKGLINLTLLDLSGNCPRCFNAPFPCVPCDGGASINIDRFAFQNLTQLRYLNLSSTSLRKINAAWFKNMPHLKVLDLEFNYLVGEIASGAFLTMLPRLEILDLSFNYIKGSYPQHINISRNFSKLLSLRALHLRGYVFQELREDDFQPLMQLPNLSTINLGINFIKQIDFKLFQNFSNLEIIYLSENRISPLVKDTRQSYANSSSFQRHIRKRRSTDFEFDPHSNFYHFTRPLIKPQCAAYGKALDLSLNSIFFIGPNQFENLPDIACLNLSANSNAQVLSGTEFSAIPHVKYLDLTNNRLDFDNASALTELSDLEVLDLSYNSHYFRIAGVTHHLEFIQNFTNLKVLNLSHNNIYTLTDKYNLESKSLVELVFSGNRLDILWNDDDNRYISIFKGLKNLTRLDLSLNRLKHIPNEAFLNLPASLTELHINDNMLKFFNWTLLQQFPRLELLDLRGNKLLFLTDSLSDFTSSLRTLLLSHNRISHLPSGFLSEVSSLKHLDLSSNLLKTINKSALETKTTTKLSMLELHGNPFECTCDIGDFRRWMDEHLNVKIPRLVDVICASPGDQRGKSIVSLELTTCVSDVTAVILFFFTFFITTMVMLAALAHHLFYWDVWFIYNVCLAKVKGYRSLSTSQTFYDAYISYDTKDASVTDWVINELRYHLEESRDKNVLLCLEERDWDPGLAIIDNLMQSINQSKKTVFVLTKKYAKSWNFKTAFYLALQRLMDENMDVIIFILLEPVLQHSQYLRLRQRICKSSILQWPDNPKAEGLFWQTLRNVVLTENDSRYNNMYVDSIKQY
Put plainly: TLR8 EC50 assay. The note with it: Table 2.

For another test, the target named is T3, TLR7 (Homo sapiens, UniProt Q9NYK1).
T3 sequence (Q9NYK1 27-1049): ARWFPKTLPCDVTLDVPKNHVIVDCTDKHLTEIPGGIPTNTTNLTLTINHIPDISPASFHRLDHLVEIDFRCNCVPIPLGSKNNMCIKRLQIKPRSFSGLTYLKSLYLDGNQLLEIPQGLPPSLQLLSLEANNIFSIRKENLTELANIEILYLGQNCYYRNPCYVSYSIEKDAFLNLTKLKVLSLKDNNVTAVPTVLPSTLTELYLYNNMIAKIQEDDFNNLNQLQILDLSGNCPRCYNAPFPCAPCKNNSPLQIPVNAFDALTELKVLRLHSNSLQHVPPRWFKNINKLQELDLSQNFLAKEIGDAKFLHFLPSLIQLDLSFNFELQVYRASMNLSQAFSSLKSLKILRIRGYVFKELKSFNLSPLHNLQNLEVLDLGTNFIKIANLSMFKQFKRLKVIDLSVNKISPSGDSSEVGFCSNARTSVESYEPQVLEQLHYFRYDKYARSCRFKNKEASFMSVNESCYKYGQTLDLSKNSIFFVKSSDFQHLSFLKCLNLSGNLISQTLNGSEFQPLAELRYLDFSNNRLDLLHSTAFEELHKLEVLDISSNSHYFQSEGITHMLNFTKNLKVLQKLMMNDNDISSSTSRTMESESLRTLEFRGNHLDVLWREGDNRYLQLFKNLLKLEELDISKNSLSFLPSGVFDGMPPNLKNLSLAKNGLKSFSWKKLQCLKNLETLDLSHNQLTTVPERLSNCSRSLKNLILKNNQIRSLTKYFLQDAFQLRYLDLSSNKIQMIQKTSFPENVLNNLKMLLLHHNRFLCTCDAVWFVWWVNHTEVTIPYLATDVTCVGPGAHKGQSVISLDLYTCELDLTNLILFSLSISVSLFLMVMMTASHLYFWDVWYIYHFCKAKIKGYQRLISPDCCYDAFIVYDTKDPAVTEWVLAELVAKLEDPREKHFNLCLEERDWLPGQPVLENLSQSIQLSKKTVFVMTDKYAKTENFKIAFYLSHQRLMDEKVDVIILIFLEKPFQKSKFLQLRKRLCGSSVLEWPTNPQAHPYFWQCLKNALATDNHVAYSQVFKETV
Put plainly: TLR7 EC50 assay. The note with it: Table 2.

With `Cc1ncccc1-c1ccc2c(c1)nc(N)c1nc(CCCO)[nH]c12` [Compound 214, 3-[4-amino-7-(2-methylpyridin-3-yl)-1H-imidazo[4,5-c]quinolin-2-yl]propan-1-ol], the concentration for a half-maximal effect (EC50) on hNLRP3 is over 100 µM; on TLR8 it was over 100 µM; on TLR7, 20 to 100 µM.
